Values quoted from earlier work in paper PMC8452925, “Differential Modulation of the Voltage-Gated Na^+ Channel 1.6 by Peptides Derived From Fibroblast Growth Factor 14” (Frontiers in Molecular Biosciences, 2021).

Columns and labels:
[1] = test system: human Nav1.6 with FGF14-GFP; conditions: ref Singh et al., 2020
Excerpt: (§1) To guide drug discovery efforts targeting the PPI interface between FGF14 and the CTD of Nav1.6, we previously developed and interrogated a homology model of the PPI interface to identify putative clusters of amino acids central to assembly of the complex ([Ali et al., 2014], [2016]). These investigations identified the Phe-Leu-Pro-Lys (FLPK) and Pro-Leu-Glu-Val (PLEV) motifs on the β12 sheet of FGF14, and the Glu-Tyr-Tyr-Val (EYYV) motif on the β8-β9 loop of FGF14, as being putatively essential for FGF14:Nav1.6 complex assembly ([Ali et al., 2014], [2016]). To investigate if short peptides de ...

MSNs of the NAc = conditions: ref Singh et al., 2020
Excerpt: as §1

FGF14:Nav1.6 complex = target: T1, FGF14:Nav1.6 complex (Homo sapiens, UniProt Q92915); conditions: ref Singh et al., 2020
T1 construct: expressed in transfected cells
T1 sequence (Q92915 1-252 isoform Q92915-2): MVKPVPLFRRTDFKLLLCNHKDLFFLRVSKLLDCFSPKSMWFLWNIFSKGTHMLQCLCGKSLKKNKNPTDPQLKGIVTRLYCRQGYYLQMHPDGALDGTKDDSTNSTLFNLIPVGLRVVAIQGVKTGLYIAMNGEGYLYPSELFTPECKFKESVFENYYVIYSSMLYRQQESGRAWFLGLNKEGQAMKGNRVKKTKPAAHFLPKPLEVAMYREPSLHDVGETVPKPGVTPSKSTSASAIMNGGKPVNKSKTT
Excerpt: as §1

[2] = test system: FGF14^Y158A:Nav1.6 complex; conditions: 50 µM, LCA, ref Singh et al., 2020
Description: In our previous study ([Singh et al., 2020]), we pharmacologically evaluated all three tetrapeptides at a single concentration of 50 µM using the LCA. […] For example, in the FGF14^V160A condition, all three peptides lost activity, whereas in the FGF14^Y158A condition, FLPK retaine ...

## Phe-Leu-Pro-Lys [FLPK, tetrapeptide from the β12 sheet of FGF14, previously evaluated (Singh et al., 2020)]
[1]
  Effect on FGF14-mediated regulation of Nav1.6 channel activity (in words): reversed FGF14-mediated regulatory effects on Nav1.6 channel activity
MSNs of the NAc
  Effect on neuronal excitability (in words): affected neuronal excitability of MSNs of the NAc
FGF14:Nav1.6 complex
  Effect on FGF14:Nav1.6 complex assembly (in words): inhibited FGF14:Nav1.6 complex assembly
[2]
  Effect on complex assembly with FGF14^Y158A (in words): retained its inhibitory effects on FGF14:Nav1.6 complex assembly
